# According to US20250171431A1, “HETEROCYCLIC INHIBITORS OF IGF-1R FOR TREATMENT OF DISEASE” (HORIZON THERAPEUTICS IRELAND DAC, priority 2023, published 2025):
# pIC50: −log10 of the molar value.
# Molecular target: IGF-1R (Homo sapiens (Human), UniProt P08069)
# Test: Example B-1: IGF-1R Assay (PC3 cells, IGF1 stimulation, AlphaLISA)
# Assay type: cell-based
# Conditions: 200 ng/mL IGF1 stimulation, read-out: Biological Activity against IGF-1R IC50
# In short: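 Readout is AlphaLISA signal from lysed PC3 cells, expressed as % inhibition versus vehicle and EC80 controls and banded by IC50. Before lysis, the cells were starved of serum for 2 h, exposed to 3× serially diluted compound for 2 h, and stimulated for 30 min with 200 ng/mL IGF1 (final).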
# Sequence of IGF-1R (P08069 31-1367): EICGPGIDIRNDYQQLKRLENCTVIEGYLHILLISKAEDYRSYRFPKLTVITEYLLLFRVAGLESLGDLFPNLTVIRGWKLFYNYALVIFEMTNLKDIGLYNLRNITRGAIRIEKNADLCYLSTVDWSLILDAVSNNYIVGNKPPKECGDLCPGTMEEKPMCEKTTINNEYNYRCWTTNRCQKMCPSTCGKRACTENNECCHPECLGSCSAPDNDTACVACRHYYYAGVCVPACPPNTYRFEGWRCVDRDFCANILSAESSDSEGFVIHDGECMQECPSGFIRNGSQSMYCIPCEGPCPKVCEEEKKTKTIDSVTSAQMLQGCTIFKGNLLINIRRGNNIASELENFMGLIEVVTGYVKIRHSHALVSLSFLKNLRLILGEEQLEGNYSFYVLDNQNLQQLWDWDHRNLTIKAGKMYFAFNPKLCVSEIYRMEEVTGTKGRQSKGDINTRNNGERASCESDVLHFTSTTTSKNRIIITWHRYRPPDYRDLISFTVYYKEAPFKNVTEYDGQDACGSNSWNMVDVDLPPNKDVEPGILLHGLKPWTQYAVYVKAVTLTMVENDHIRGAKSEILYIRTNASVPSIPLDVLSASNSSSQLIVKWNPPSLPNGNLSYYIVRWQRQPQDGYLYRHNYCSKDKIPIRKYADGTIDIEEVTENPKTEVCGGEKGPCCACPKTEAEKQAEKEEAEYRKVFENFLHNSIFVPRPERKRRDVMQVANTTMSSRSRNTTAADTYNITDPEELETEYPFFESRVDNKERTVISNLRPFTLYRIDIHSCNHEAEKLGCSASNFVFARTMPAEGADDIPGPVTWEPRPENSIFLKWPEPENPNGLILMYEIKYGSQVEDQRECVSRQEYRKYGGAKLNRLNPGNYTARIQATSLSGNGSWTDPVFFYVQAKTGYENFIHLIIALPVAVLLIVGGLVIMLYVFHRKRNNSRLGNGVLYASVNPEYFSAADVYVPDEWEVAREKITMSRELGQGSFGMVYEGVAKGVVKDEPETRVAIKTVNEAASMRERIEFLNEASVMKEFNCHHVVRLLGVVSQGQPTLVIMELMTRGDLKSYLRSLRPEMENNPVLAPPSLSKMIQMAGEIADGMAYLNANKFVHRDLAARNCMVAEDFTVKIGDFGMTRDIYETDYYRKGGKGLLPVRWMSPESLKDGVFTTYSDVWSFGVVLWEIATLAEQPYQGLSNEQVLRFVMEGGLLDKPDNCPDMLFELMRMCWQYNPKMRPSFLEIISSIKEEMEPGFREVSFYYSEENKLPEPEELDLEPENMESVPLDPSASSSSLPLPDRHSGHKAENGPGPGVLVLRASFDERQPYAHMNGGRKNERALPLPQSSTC
row,Molecule,pIC50
1,"COc1cc(Nc2nccc(Nc3cnc4c(c3)CC(O)CC4)n2)ccc1O[C@H]1C[C@@H](N(C)C)C1 (some centres unmarked) [Compound 82, 3-(2-{3-methoxy-4-[(1s,3s)-3-(dimethylamino)cyclobutoxy]phenylamino}-4-pyrimidinylamino)-5,6,7,8-tetrahydro-6-quinolinol]",5.70 to 6.30
2,"COc1cc(Nc2nccc(Nc3cnc4c(Cl)cccc4c3)n2)ccc1O[C@H]1C[C@H](N(C)C)C1 [Compound 358, 4-(8-chloro-3-quinolylamino)-2-{3-methoxy-4-[(1r,3r)-3-(dimethylamino)cyclobutoxy]phenylamino}pyrimidine]",≥ 6.30
3,COc1ccc2cc(Nc3ccnc(Nc4ccc(O[C@H]5C[C@H](N6CCS(=O)(=O)CC6)C5)cc4)n3)cnc2c1 [Compound 353],5.00 to 5.70
4,"COc1cc(Nc2nccc(Nc3cnc4ccc(C(F)(F)F)cc4c3)n2)ccc1OCCCN1CCOCC1 [Compound 419, 2-[3-methoxy-4-(3-morpholinopropoxy)phenylamino]-4-[6-(trifluoromethyl)-3-quinolylamino]pyrimidine]",≥ 6.30
5,"7-(2-{3-methoxy-4-[(1s,3s)-3- (dimethylamino)cyclobutoxy] phenylamino}-4- pyrimidinylamino)-2,2- dimethyl-2,4-dihydro-1-oxa- 4,5-diaza-3-naphthalenone [Compound 288]",5.70 to 6.30
6,"CN(C)[C@H]1C[C@H](Oc2ccc(Nc3nccc(Nc4cnc5ccccc5c4)n3)cc2)C1 [Compound 27, 4-(3-quinolylamino)-2-{p-[(1r,3r)-3-(dimethylamino)cyclobutoxy]phenylamino}pyrimidine]",≥ 6.30
7,"COc1cc(Nc2nccc(Nc3cnc4c(c3)OCCO4)n2)ccc1O[C@H]1C[C@H](N2CCS(=O)(=O)CC2)C1 [Compound 359, 4-[(1r,3r)-3-{4-[4-(2,3-dihydro-1,4-dioxa-5-aza-7-naphthylamino)-2-pyrimidinylamino]-2-methoxyphenoxy}cyclobutyl]-1λ^6,4-thiazinane-1,1-dione]",≥ 6.30
8,"CN(C)[C@H]1C[C@@H](Oc2ccc(Nc3nccc(Nc4cnc5ccccc5c4)n3)cc2)C1 [Compound 367, 4-(3-quinolylamino)-2-{p-[(1s,3s)-3-(dimethylamino)cyclobutoxy]phenylamino}pyrimidine]",≥ 6.30
9,"COc1cc(Nc2nccc(Nc3cnc4c(c3)CCCC4)n2)ccc1OCCCN1CCCCC1 [Compound 374, 2-[3-methoxy-4-(3-piperidinopropoxy)phenylamino]-4-(5,6,7,8-tetrahydro-3-quinolylamino)pyrimidine]",≥ 6.30
10,"COc1cc(Nc2nccc(Nc3cnc4ccc(C(F)(F)F)cc4c3)n2)ccc1O[C@H]1C[C@H](N(C)C)C1 [Compound 334, 2-{3-methoxy-4-[(1r,3r)-3-(dimethylamino)cyclobutoxy]phenylamino}-4-[6-(trifluoromethyl)-3-quinolylamino]pyrimidine]",≥ 6.30
11,"c1cc(Nc2cnc3c(c2)C2CCC3C2)nc(Nc2ccc(OCCCN3CCOCC3)cc2)n1 (centres unmarked) [Compound 372, 4-(3-azatricyclo[6.2.1.0^2,7]undeca-2,4,6-trien-5-ylamino)-2-[p-(3-morpholinopropoxy)phenylamino]pyrimidine]",≥ 6.30
12,"COc1cc(Nc2nccc(Nc3cc4ccccc4[nH]c3=O)n2)cnc1O[C@H]1C[C@@H](N(C)C)C1 [Compound 11, 3-(2-{5-methoxy-6-[(1s,3s)-3-(dimethylamino)cyclobutoxy]-3-pyridylamino}-4-pyrimidinylamino)-2(1H)-quinolinone]",≥ 6.30
13,"COc1cc(Nc2nccc(Nc3cnc4cc(F)c(F)cc4c3)n2)cnc1N1C[C@H]2C[C@@H]1CO2 [Compound 127, 2-(6-{(1R,4R)-2-oxa-5-azabicyclo[2.2.1]hept-5-yl}-5-methoxy-3-pyridylamino)-4-(6,7-difluoro-3-quinolylamino)pyrimidine]",≥ 6.30

# The next lines start with the values.
row,pIC50,Molecule
1,≥ 6.30,"COc1cc(Nc2nccc(Nc3cnc4ccc(Br)cc4c3)n2)ccc1O[C@H]1CC[C@@H](N2CCOCC2)CC1 [Compound 32, 4-(6-bromo-3-quinolylamino)-2-{3-methoxy-4-[(1s,4s)-4-morpholinocyclohexyloxy]phenylamino}pyrimidine]"
2,≥ 6.30,"COc1cc(Nc2nccc(Nc3cc4cccc(F)c4[nH]c3=O)n2)cnc1N1CCOCC1 [Compound 241, 8-fluoro-3-[2-(5-methoxy-6-morpholino-3-pyridylamino)-4-pyrimidinylamino]-1,2-dihydro-2-quinolinone]"
3,≥ 6.30,COc1cc(Nc2nccc(Nc3cnc4cc(F)c(F)cc4c3)n2)cnc1N1CCN(CC#N)CC1 [Compound 49]
4,≥ 6.30,"COc1cc(Nc2nccc(Nc3cnc4ccc(Cl)cc4c3)n2)cnc1N1CCC(C)(O)CC1 [Compound 476, 1-{5-[4-(6-chloro-3-quinolylamino)-2-pyrimidinylamino]-3-methoxy-2-pyridyl}-4-methyl-4-piperidinol]"
5,≥ 6.30,"CN(C)[C@H]1CC[C@@H](Oc2ccc(Nc3nccc(Nc4cnc5ccc(Cl)cc5c4)n3)cc2)CC1 [Compound 310, 4-(6-chloro-3-quinolylamino)-2-{p-[(1s,4s)-4-(dimethylamino)cyclohexyloxy]phenylamino}pyrimidine]"
6,≥ 6.30,"Fc1cnc(Nc2ccc(OCCCN3CCCCC3)cc2)nc1Nc1cnc2ccccc2c1 [Compound 432, 5-fluoro-2-[p-(3-piperidinopropoxy)phenylamino]-4-(3-quinolylamino)pyrimidine]"
7,≥ 6.30,"COc1cc(Nc2nccc(Nc3cc4cccc(F)c4[nH]c3=O)n2)cnc1N1CCNCC1 [Compound 235, 8-fluoro-3-{2-[5-methoxy-6-(1-piperazinyl)-3-pyridylamino]-4-pyrimidinylamino}-1,2-dihydro-2-quinolinone]"
8,≥ 6.30,"O=S1(=O)CCN(CCCOc2ccc(Nc3nccc(Nc4cnc5c(c4)C4CCC5C4)n3)cc2)CC1 (centres unmarked) [Compound 371, 4-[3-(p-{4-(3-azatricyclo[6.2.1.0^2,7]undeca-2,4,6-trien-5-ylamino)-2-pyrimidinylamino}phenoxy)propyl]-1λ^6,4-thiazinane-1,1-dione]"
9,≥ 6.30,"c1ccc2ncc(Nc3ccnc(Nc4ccc(O[C@H]5CC[C@@H](N6CCOCC6)CC5)cc4)n3)cc2c1 [Compound 39, 4-(3-quinolylamino)-2-{p-[(1s, 4s)-4-morpholinocyclohexyloxy]phenylamino}pyrimidine]"
10,≥ 6.30,"COc1cc(N2CCC(C)(O)CC2)ncc1Nc1nccc(Nc2cnc3cc(F)c(F)cc3c2)n1 [Compound 488, 1-{5-[4-(6,7-difluoro-3-quinolylamino)-2-pyrimidinylamino]-4-methoxy-2-pyridyl}-4-methyl-4-piperidinol]"
11,≥ 6.30,"COc1cc(N2CCN(C3COC3)CC2)ncc1Nc1nccc(Nc2cnc3ccc(Cl)cc3c2)n1 [Compound 494, 4-(6-chloro-3-quinolylamino)-2-{4-methoxy-6-[4-(3-oxetanyl)-1-piperazinyl]-3-pyridylamino}pyrimidine]"
12,≥ 6.30,"COc1cc(Nc2nccc(Nc3cnc4ccc(Cl)cc4c3)n2)cnc1N1CCN(C)CC1 [Compound 477, 4-(6-chloro-3-quinolylamino)-2-[5-methoxy-6-(4-methyl-1-piperazinyl)-3-pyridylamino]pyrimidine]"
13,≥ 6.30,O=C1CN([C@H]2CC[C@@H](Oc3ccc(Nc4nccc(Nc5cnc6ccccc6c5)n4)cc3)CC2)CCN1 [Compound 41]
